Measured values from the supplement of paper PMC10307832.

How the values were obtained:
Assay in all cases: relative viability (nuclei count vs DMSO), 5 days (fraction); higher = more cells survive
[1] = compound: COC1=CC=C(C=C1)CN2C=CC3=C2C=C(C=C3)C(=O)NO + Cc1cc(Nc2cc(N3CCN(C)CC3)nc(Sc3ccc(NC(=O)C4CC4)cc3)n2)n[nH]1 [Tozasertib] (partner 0.1 µM)
Summary of the method: (§1)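 Lung cancer cell lines in 1536-well plates were dosed by pin tool the day after seeding, either with one drug alone or with a fixed anchor-drug dose plus five library-drug doses (not always all listed) in √10 steps. After 5 days, cells were fixed and their nuclei stained in one step (final 0.05% Triton X-100, 1% formaldehyde, 1 ug/ml Hoechst), then counted on 4× images. Relative viability is the nuclei count in treated wells divided by that in vehicle wells. Values are medians of duplicate plates.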

Veliparib + Palbociclib = compound: C[C@]1(c2nc3c(C(N)=O)cccc3[nH]2)CCCN1 [Veliparib] + CC(=O)c1c(C)c2cnc(Nc3ccc(N4CCNCC4)cn3)nc2n(C2CCCC2)c1=O [Palbociclib] (partner 0.5 µM)
Summary of the method: as §1

Veliparib + Navitoclax = compound: C[C@]1(c2nc3c(C(N)=O)cccc3[nH]2)CCCN1 [Veliparib] + CC1(C)CCC(c2ccc(Cl)cc2)=C(CN2CCN(c3ccc(C(=O)NS(=O)(=O)c4ccc(N[C@H](CCN5CCOCC5)CSc5ccccc5)c(S(=O)(=O)C(F)(F)F)c4)cc3)CC2)C1 [Navitoclax] (partner 0.5 µM)
Summary of the method: as §1

Veliparib + Linsitinib = compound: C[C@]1(c2nc3c(C(N)=O)cccc3[nH]2)CCCN1 [Veliparib] + C[C@]1(O)C[C@@H](c2nc(-c3ccc4ccc(-c5ccccc5)nc4c3)c3c(N)nccn32)C1 [Linsitinib] (partner 1 µM)
Summary of the method: as §1

Cell Line	relative viability ([1]; first compound 0.08 µM)	relative viability ([1]; first compound 0.253 µM)	relative viability ([1]; first compound 0.8 µM)	relative viability ([1]; first compound 2.53 µM)	relative viability ([1]; first compound 8 µM)	relative viability (Veliparib + Palbociclib; first compound 0.02 µM)	relative viability (Veliparib + Palbociclib; first compound 0.06325 µM)	relative viability (Veliparib + Palbociclib; first compound 0.2 µM)	relative viability (Veliparib + Palbociclib; first compound 0.6325 µM)	relative viability (Veliparib + Palbociclib; first compound 2 µM)	relative viability (Veliparib + Navitoclax; first compound 0.02 µM)	relative viability (Veliparib + Navitoclax; first compound 0.06325 µM)	relative viability (Veliparib + Navitoclax; first compound 0.2 µM)	relative viability (Veliparib + Navitoclax; first compound 0.6325 µM)	relative viability (Veliparib + Navitoclax; first compound 2 µM)	relative viability (Veliparib + Linsitinib; first compound 0.02 µM)	relative viability (Veliparib + Linsitinib; first compound 0.06325 µM)	relative viability (Veliparib + Linsitinib; first compound 0.2 µM)	relative viability (Veliparib + Linsitinib; first compound 0.6325 µM)	relative viability (Veliparib + Linsitinib; first compound 2 µM)
HCC-827	0.405	0.427	0.442	0.416	0.415	0.458	0.459	0.51	0.176	0.454	1.03	0.937	0.971	0.944	1.02	0.96	0.899	0.816	0.949	0.939
NCI-H1734		0.236	0.242	0.251	0.23		0.32	0.351	0.323	0.349	0.811	0.807	0.76	0.745	0.866	0.925	0.85	0.917	0.805	0.928
NCI-H2087	0.253	0.293	0.246	0.294	0.234	0.183	0.222	0.249	0.264	0.216	0.883	0.821	0.849	0.863	0.952	1.01	0.903	1.02	0.898	0.999
LCLC-103H	0.445	0.523	0.489	0.534	0.433	0.44	0.417	0.48	0.44	0.456						1.1	0.982	1.11	1.01	1.08
NCI-H1299											1.06	0.989	1.03	0.996	1.07	0.905	0.931	0.921	0.898	0.988
RERF-LC-KJ	0.427	0.494	0.499	0.49	0.388	1.07	1.03	1.06	1.09	1.13	1.05		1	0.852	0.754	0.894	0.787	0.823	0.837	0.818
NCI-H2170	0.439	0.869	0.694	0.729	0.616	0.43	0.446	0.435	0.386	0.399	0.544	0.531	0.597	0.618	0.606					
EBC-1											0.508	0.405	0.487	0.334	0.407	0.771	0.807	0.723	0.793	0.97
NCI-H661		0.356	0.369	0.328	0.329	0.382	0.41	0.4	0.371	0.384						0.4	0.59	0.604	0.496	0.666
NCI-H596	1.05	0.823	0.872	0.938	0.743						1.02	0.861	1.06	0.761	0.834	1	1.02	1.07	0.893	0.99
ABC-1		0.221	0.183	0.162	0.209			0.863	0.694	0.405							0.767	0.807	0.759	0.892
ChaGo-K-1		0.249	0.211	0.214	0.234	0.712	0.951	1.02	0.892	0.944		0.833	1.08	1.06	0.85					
NCI-H2342	0.497	0.701	0.544	0.531	0.47	0.482	0.581	0.503	0.522	0.491										
NCI-H1703											1.62	0.849	1.08	0.977	1.29	0.17	0.63	1.22	0.604	0.974
NCI-H1650	0.391	0.379	0.447	0.416	0.326	0.236	0.305	0.28	0.322	0.345		0.93	1.19	1.08	1.32					
NCI-H522		0.589	0.53	0.613	0.545	1.01	0.864	1.18	1.11	1										
NCI-H1563																1.23	1.07	1.27	1.12	1.12
NCI-H358		0.0969	0.108	0.131	0.0806	0.117	0.136	0.153	0.137	0.119							0.815	0.775	0.667	0.772
NCI-H1792						0.635	0.603	0.704	0.692	0.659	0.589	0.5	0.67	0.616	0.564	0.59	0.422	0.535	0.494	0.543
NCI-H1648	0.415	0.573	0.479	0.399	0.473	0.257			0.232	0.274										
SW 900	0.558	0.647	0.574	0.612	0.489		0.516	0.557	0.539	0.56										
IA-LM											0.939	0.697	0.755	0.697	0.94	0.411	0.494	0.538	0.544	0.708
NCI-H650	0.595	0.69	0.786	0.673	0.672	0.309	0.278	0.344	0.33	0.331						0.766	0.716	0.864	0.875	0.448
A549											1.25	1.18	1.17	1.16	1.13	0.62	0.576	0.591	0.626	0.586
